Laboratory results published in EP3782997A1, “FUSED PYRIMIDINE COMPOUNDS AND PHARMACEUTICAL COMPOSITIONS THEREOF FOR THE TREATMENT OF FIBROTIC DISEASES” (Galapagos N.V., priority 2019, dated 2021).

Target: hENPP2 (Homo sapiens, UniProt Q13822)
Assay: Human ENPP2 (hENPP2) biochemical assay using LPC as substrate
Details: 150 µM LPC (palmitoyl 16:0), 37°C for 30 min
How it was run: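 IC50 came from compound series (top 50 µM, 1/3 steps) incubated 30 min at 37°C with 1 or 3 µg/mL final enzyme and palmitoyl LPC added at 150 µM, pH 8.5 Tris buffer with Ca2+. Choline output measured as quinoneimine dye at 555 nm via coupled oxidase/HRP/TOOS detection.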

Structure (SMILES) | IC50 [nM]
Cc1cc(C)cc(Nc2ncc3c(n2)CN([C@@H]2CCN(C(=O)c4ccc5[nH]c(=O)[nH]c5c4)[C@H](C)C2)C3)c1 [compound 157, 5-[(2R,4R)-4-[2-(3,5-dimethylanilino)-5,7-dihydropyrrolo[3,4-d]pyrimidin-6-yl]-2-methyl-piperidine-1-carbonyl]-1,3-dihydrobenzimidazol-2-one] | 0.01 to 100
Cc1cc(C)cc(Nc2ncc3c(n2)CN([C@@H]2CCN(C(=O)c4ccc(S(N)(=O)=O)nc4)[C@H](C)C2)C3)c1 [compound 159, 5-[(2R,4R)-4-[2-(3,5-dimethylanilino)-5,7-dihydropyrrolo[3,4-d]pyrimidin-6-yl]-2-methyl-piperidine-1-carbonyl]pyridine-2-sulfonamide] | 500 to 1000
Cc1cc(C)cc(Nc2ncc3c(n2)CN([C@@H]2CCN(C(=O)c4cn(C)nn4)[C@H](C)C2)C3)c1 [compound 161, [(2R,4R)-4-[2-(3,5-dimethylanilino)-5,7-dihydropyrrolo[3,4-d]pyrimidin-6-yl]-2-methyl-1-piperidyl]-(1-methyltriazol-4-yl)methanone] | > 1000
C[C@@H]1C[C@H](N2Cc3cnc(Nc4ccccc4)nc3C2)CCN1C(=O)c1ccc2[nH]nnc2c1 [compound 166, [(2R,4R)-4-(2-anilino-5,7-dihydropyrrolo[3,4-d]pyrimidin-6-yl)-2-methyl-1-piperidyl]-(1H-benzotriazol-5-yl)methanone] | 100 to 500
C[C@@H]1C[C@H](N2Cc3cnc(Nc4ccc(F)cc4)nc3C2)CCN1C(=O)c1c[nH]nn1 [compound 173, [(2R,4R)-4-[2-(4-fluoroanilino)-5,7-dihydropyrrolo[3,4-d]pyrimidin-6-yl]-2-methyl-1-piperidyl]-(1H-triazol-4-yl)methanone] | > 1000
Cc1cc(C)cc(Nc2ncc3c(n2)CCN(C2CCN(C(=O)c4ccnc(NS(C)(=O)=O)c4)CC2)C3)c1 [compound 174, N-[4-[4-[2-(3,5-dimethylanilino)-7,8-dihydro-5H-pyrido[4,3-d]pyrimidin-6-yl]piperidine-1-carbonyl]-2-pyridyl]methanesulfonamide] | > 1000
C[C@@H]1C[C@H](N2Cc3cnc(Nc4ccc(S(F)(F)(F)(F)F)cc4)nc3C2)CCN1C(=O)c1ccnc(NS(C)(=O)=O)c1 [compound 177, N-[4-[(2R,4R)-2-methyl-4-[2-[4-(pentafluoro-λ^6-sulfanyl)anilino]-5,7-dihydropyrrolo[3,4-d]pyrimidin-6-yl]piperidine-1-carbonyl]-2-pyridyl]methanesulfonamide] | 0.01 to 100
Cc1ccc(Nc2ncc3c(n2)CN([C@@H]2CCN(C(=O)c4ccnc(NS(C)(=O)=O)c4)[C@H](C)C2)C3)cc1 [compound 181, N-[4-[(2R,4R)-2-methyl-4-[2-(4-methylanilino)-5,7-dihydropyrrolo[3,4-d]pyrimidin-6-yl]piperidine-1-carbonyl]-2-pyridyl]methanesulfonamide] | 0.01 to 100
Cc1ccc(Nc2ncc3c(n2)CN([C@H]2CCN(C(=O)c4ccnc(NS(C)(=O)=O)c4)[C@H](C)C2)C3)cc1 [compound 182, N-[4-[(2R,4S)-2-methyl-4-[2-(4-methylanilino)-5,7-dihydropyrrolo[3,4-d]pyrimidin-6-yl]piperidine-1-carbonyl]-2-pyridyl]methanesulfonamide] | 500 to 1000
COc1cc(C)cc(Nc2ncc3c(n2)CN([C@@H]2CCN(C(=O)c4cc5nn[nH]c5cc4C)[C@H](C)C2)C3)c1 [compound 184, [(2R,4R)-4-[2-(3-methoxy-5-methyl-anilino)-5,7-dihydropyrrolo[3,4-d]pyrimidin-6-yl]-2-methyl-1-piperidyl]-(6-methyl-1H-benzotriazol-5-yl)methanone] | 0.01 to 100
C[C@@H]1C[C@H](N2Cc3cnc(Nc4ccc(C(F)(F)F)cc4)nc3C2)CCN1C(=O)c1ccnc(NS(C)(=O)=O)c1 [compound 186, N-[4-[(2R,4R)-2-methyl-4-[2-[4-(trifluoromethyl)anilino]-5,7-dihydropyrrolo[3,4-d]pyrimidin-6-yl]piperidine-1-carbonyl]-2-pyridyl]methanesulfonamide] | 0.01 to 100
C[C@@H]1C[C@H](N2Cc3cnc(Nc4ccc(F)cc4)nc3C2)CCN1C(=O)c1ccnc(NS(C)(=O)=O)c1 [compound 188, N-[4-[(2R,4R)-4-[2-(4-fluoroanilino)-5,7-dihydropyrrolo[3,4-d]pyrimidin-6-yl]-2-methyl-piperidine-1-carbonyl]-2-pyridyl]methanesulfonamide] | 0.01 to 100

Now from value to compound:

IC50 [nM] | Structure (SMILES)
0.01 to 100 | Cc1cc(C)cc(Nc2ncc3c(n2)CN([C@@H]2CCN(C(=O)c4ccc5c(c4)CC(=O)N5)[C@H](C)C2)C3)c1 [compound 156, 5-[(2R,4R)-4-[2-(3,5-dimethylanilino)-5,7-dihydropyrrolo[3,4-d]pyrimidin-6-yl]-2-methyl-piperidine-1-carbonyl]indolin-2-one]
> 1000 | Cc1cc(C)cc(Nc2ncc3c(n2)CCN(C2CCN(C(=O)c4c[nH]nn4)CC2)C3)c1 [compound 162, [4-[2-(3,5-dimethylanilino)-7,8-dihydro-5H-pyrido[4,3-d]pyrimidin-6-yl]-1-piperidyl]-(1H-triazol-4-yl)methanone]
0.01 to 100 | Cc1cc(C)cc(Nc2ncc3c(n2)CN([C@@H]2CCN(C(=O)c4cc5nn[nH]c5cc4C)[C@H](C)C2)C3)c1 [compound 163, [(2R,4R)-4-[2-(3,5-dimethylanilino)-5,7-dihydropyrrolo[3,4-d]pyrimidin-6-yl]-2-methyl-1-piperidyl]-(6-methyl-1H-benzotriazol-5-yl)methanone]
> 1000 | C[C@@H]1C[C@@H](N2Cc3cnc(Nc4ccccc4)nc3C2)CCN1C(=O)c1ccc2[nH]nnc2c1 [compound 165, [(2R,4S)-4-(2-anilino-5,7-dihydropyrrolo[3,4-d]pyrimidin-6-yl)-2-methyl-1-piperidyl]-(1H-benzotriazol-5-yl)methanone]
0.01 to 100 | Cc1cc(C)cc(Nc2ncc3c(n2)CN([C@@H]2CCN(C(=O)c4ccc5[nH]nnc5c4C)[C@H](C)C2)C3)c1 [compound 168, [(2R,4R)-4-[2-(3,5-dimethylanilino)-5,7-dihydropyrrolo[3,4-d]pyrimidin-6-yl]-2-methyl-1-piperidyl]-(4-methyl-1H-benzotriazol-5-yl)methanone]
100 to 500 | COc1cccc(Nc2ncc3c(n2)CN([C@H]2CCN(C(=O)c4ccc5[nH]nnc5c4)[C@H](C)C2)C3)c1 [compound 170, 1H-benzotriazol-5-yl-[(2R,4S)-4-[2-(3-methoxyanilino)-5,7-dihydropyrrolo[3,4-d]pyrimidin-6-yl]-2-methyl-1-piperidyl]methanone]
0.01 to 100 | COc1cccc(Nc2ncc3c(n2)CN([C@@H]2CCN(C(=O)c4ccc5[nH]nnc5c4)[C@H](C)C2)C3)c1 [compound 171, 1H-benzotriazol-5-yl-[(2R,4R)-4-[2-(3-methoxyanilino)-5,7-dihydropyrrolo[3,4-d]pyrimidin-6-yl]-2-methyl-1-piperidyl]methanone]
0.01 to 100 | C[C@@H]1C[C@H](N2Cc3cnc(Nc4ccc(C(F)(F)F)cc4)nc3C2)CCN1C(=O)c1c[nH]nn1 [compound 175, [(2R,4R)-2-methyl-4-[2-[4-(trifluoromethyl)anilino]-5,7-dihydropyrrolo[3,4-d]pyrimidin-6-yl]-1-piperidyl]-(1H-triazol-4-yl)methanone]
0.01 to 100 | Cc1cc(C)cc(Nc2ncc3c(n2)CN([C@@H]2CCN(C(=O)c4nn[nH]c4C)[C@H](C)C2)C3)c1 [compound 176, [(2R,4R)-4-[2-(3,5-dimethylanilino)-5,7-dihydropyrrolo[3,4-d]pyrimidin-6-yl]-2-methyl-1-piperidyl]-(5-methyl-1H-triazol-4-yl)methanone]
0.01 to 100 | C[C@@H]1C[C@@H](N2Cc3cnc(Nc4ccc(S(F)(F)(F)(F)F)cc4)nc3C2)CCN1C(=O)c1ccnc(NS(C)(=O)=O)c1 [compound 178, N-[4-[(2R,4S)-2-methyl-4-[2-[4-(pentafluoro-λ^6-sulfanyl)anilino]-5,7-dihydropyrrolo[3,4-d]pyrimidin-6-yl]piperidine-1-carbonyl]-2-pyridyl]methanesulfonamide]
0.01 to 100 | C[C@@H]1C[C@H](N2Cc3cnc(Nc4ccc(Cl)cc4)nc3C2)CCN1C(=O)c1ccnc(NS(C)(=O)=O)c1 [compound 179, N-[4-[(2R,4R)-4-[2-(4-chloroanilino)-5,7-dihydropyrrolo[3,4-d]pyrimidin-6-yl]-2-methyl-piperidine-1-carbonyl]-2-pyridyl]methanesulfonamide]
100 to 500 | C[C@@H]1C[C@@H](N2Cc3cnc(Nc4ccc(Cl)cc4)nc3C2)CCN1C(=O)c1ccnc(NS(C)(=O)=O)c1 [compound 180, N-[4-[(2R,4S)-4-[2-(4-chloroanilino)-5,7-dihydropyrrolo[3,4-d]pyrimidin-6-yl]-2-methyl-piperidine-1-carbonyl]-2-pyridyl]methanesulfonamide]
0.01 to 100 | Cc1cc2[nH]nnc2cc1C(=O)N1CC[C@@H](N2Cc3cnc(Nc4ccc(C(F)(F)F)cc4)nc3C2)C[C@H]1C [compound 183, (6-methyl-1H-benzotriazol-5-yl)-[(2R,4R)-2-methyl-4-[2-[4-(trifluoromethyl)anilino]-5,7-dihydropyrrolo[3,4-d]pyrimidin-6-yl]-1-piperidyl]methanone]
0.01 to 100 | COc1cc(C)cc(Nc2ncc3c(n2)CN([C@H]2CCN(C(=O)c4cc5nn[nH]c5cc4C)[C@H](C)C2)C3)c1 [compound 185, [(2R,4S)-4-[2-(3-methoxy-5-methyl-anilino)-5,7-dihydropyrrolo[3,4-d]pyrimidin-6-yl]-2-methyl-1-piperidyl]-(6-methyl-1H-benzotriazol-5-yl)methanone]
0.01 to 100 | COc1cc(C)cc(Nc2ncc3c(n2)CN([C@@H]2CCN(C(=O)c4ccnc(NS(C)(=O)=O)c4)[C@H](C)C2)C3)c1 [compound 187, N-[4-[(2R,4R)-4-[2-(3-methoxy-5-methyl-anilino)-5,7-dihydropyrrolo[3,4-d]pyrimidin-6-yl]-2-methyl-piperidine-1-carbonyl]-2-pyridyl]methanesulfonamide]
